# Test results: PMC4885039, “A Scorpion Defensin BmKDfsin4 Inhibits Hepatitis B Virus Replication in Vitro” (Toxins, 2016)
# Residues, ends and D or L forms follow the SMILES beside them.
# Columns and labels:
# HepG2.2.15 cells = assay: MTT cytotoxicity assay, HepG2.2.15; type: cell-based, human; conditions: 48 h, 0 to 200 μM, five repetitions
# Method: Cells were seeded in 96-well plates (10^4 cells per well) and cultured in DMEM containing 10% FBS in 5% CO2 at 37 °C for 12 h. Then, peptides were added to the medium in a serial of concentrations. The concentrations ranged from 0 to 200 μM. Five repetitions were set for each concentration. After 48 h of incubation, 20 μL of MTT solution (5 mg/mL in PBS buffer; Invitrogen, Foster, CA, USA) was added to the medium in each well, and the plate was incubated in 5% CO2 at 37 °C for 4 h. Then, the medium was replaced by 100 μL DMSO. To completely dissolve the precipitated crystal purple formazan, the plate was then gently shaken for 10 min at room temperature. The absorbance at a wavelength of 570 nm was measured using a microplate reader (BioTek, Winooski, VT, USA).
# human erythrocytes = assay: Hemolysis assay; type: cell-based; conditions: 37 °C, 1 h, absorbance at 570 nm, 0 to 200 μM
# Method: Erythrocytes were obtained from fresh human blood by centrifugation for 10 min at 1000× g. After washed by HEPES buffer for three times, erythrocytes were resuspended in normal saline and seeded in 96-well plates (10^7 cells per well). BmKDfsin4 was added in a serial of concentrations, 0.1% triton-X100 was used as positive control and normal saline was used as negative control. After incubated at 37 °C for 1 h, the supernatants were collected by centrifugation for 10 min at 1000× g. The absorbance of hemoglobin was measured at a wavelength of 570 nm.
# HBsAg = assay: Western blot of intracellular HBsAg in HepG2.2.15 cell lysates; type: cell-based, Hepatitis B virus; conditions: 10 μM, HepG2.2.15 cell lysate
# Method: (§1) Cells were resuspended with radioimmunoprecipitation (RIPA) assay buffer (50 mM Tris-HCl (pH 7.5), 150 mM sodium chloride, 1% Nonidet P40, and 0.5% sodium deoxycholate) with phenylmethylsulfonyl fluoride (PMSF) and incubated on ice for 30 min for fully lysis. Cell lysates were electrophoresed in sodium dodecyl sulfate-polyacrylamide (SDS) gels and transferred to nitrocellulose membranes (Millipore, Darmstadt, Germany). The antibodies used for probing were as follows: mouse monoclonal anti-HBsAg (1:200 dilution, Abcam, Cambridge, UK), rabbit polyclonal anti-HBV core (1:500 dilution, Dako-Cytomation, Carpinteria, CA, USA), mouse monoclonal anti-Hep B xAg (1:200 dilution, Santa Cruz Biotechnology, Dallas, TX, USA), mouse monoclonal anti-Hep B Pol (1:200 dilution, Santa Cruz Biotechnology, Dallas, TX, USA), and anti-β-actin (1:5000 dilution, Santa Cruz Biotechnology, Dallas, TX, USA) were used as primary antibodies, and the secondary antibodies were conjugated to horseradish peroxidase (HRP).
# HBx protein = assay: Western blot of intracellular HBx protein in HepG2.2.15 cell lysates; type: cell-based, Hepatitis B virus; conditions: HepG2.2.15 cell lysate
# Method: as §1
# HBV core = assay: Western blot of intracellular HBV core in HepG2.2.15 cell lysates; type: cell-based, Hepatitis B virus; conditions: HepG2.2.15 cell lysate
# Method: as §1
# HBV RT = assay: Western blot of intracellular HBV RT in HepG2.2.15 cell lysates; type: cell-based, Hepatitis B virus; conditions: HepG2.2.15 cell lysate
# Method: as §1
smiles,measurement,setting,value
"CC[C@H](C)[C@@H]1NC(=O)[C@H](CO)NC(=O)[C@H](CCC(N)=O)NC(=O)[C@@H]2CSSC[C@@H](C(=O)N[C@@H](Cc3ccc(O)cc3)C(=O)N[C@@H](CCCNC(=N)N)C(=O)O)NC(=O)[C@H](C(C)C)NC(=O)[C@@H]3CSSC[C@H](NC(=O)[C@H](CCC(N)=O)NC(=O)CNC(=O)[C@H](CCC(N)=O)NC(=O)[C@H](CC(N)=O)NC(=O)[C@H](Cc4ccccc4)NC(=O)[C@@H]4CCCN4C(=O)[C@@H](NC(=O)CNC(=O)[C@H](Cc4ccccc4)NC(=O)CN)CSSC[C@H](NC(=O)[C@H](Cc4ccc(O)cc4)NC(=O)CNC(=O)CNC(=O)[C@H](CCCNC(=N)N)NC(=O)[C@H](CCCNC(=N)N)NC(=O)[C@H](CCCNC(=N)N)NC1=O)C(=O)N[C@@H](CC(=O)O)C(=O)NCC(=O)N[C@@H](Cc1ccccc1)C(=O)N[C@@H](CC(C)C)C(=O)N[C@@H](CCCCN)C(=O)N[C@@H]([C@@H](C)O)C(=O)N[C@@H](CCCNC(=N)N)C(=O)N3)C(=O)N[C@@H](Cc1c[nH]cn1)C(=O)N[C@@H](CCCCN)C(=O)N[C@@H](Cc1c[nH]cn1)C(=O)N2 [BmKDfsin4] (HELM PEPTIDE1{G.F.G.C.P.F.N.Q.G.Q.C.H.K.H.C.Q.S.I.R.R.R.G.G.Y.C.D.G.F.L.K.T.R.C.V.C.Y.R}$PEPTIDE1,PEPTIDE1,4:R3-25:R3|PEPTIDE1,PEPTIDE1,11:R3-33:R3|PEPTIDE1,PEPTIDE1,15:R3-35:R3$$$V2.0; N-terminus and C-terminus assumed; bridges inferred)","CC50 (50% cytotoxicity concentration), HepG2.2.15",HepG2.2.15 cells,167.82 µM
same,HC50 (50% hemolysis concentration),human erythrocytes,66.85 µM
same,intracellular HBsAg level,HBsAg,almost undetectable
same,intracellular HBx protein level,HBx protein; 5 μM,only a slight band
same,intracellular HBx protein level,HBx protein; 10 μM,totally undetectable
same,inhibitory activity against intracellular HBV core,HBV core,significantly concentration-dependent inhibition
same,inhibitory activity against intracellular HBV RT,HBV RT,significantly concentration-dependent inhibition
